Laboratory results as given in ChEMBL document CHEMBL2203247, “Ribonuclease-Activated Cancer Prodrug” (ACS Med Chem Lett, 2012).

What was measured:
MCF7 [1] = assay: Antiproliferative activity against human MCF7 cells assessed as incorporation of [methyl-3H]thymidine into cellular DNA in serum free medium in presence of 6.2 ug/mL RNase 1; format: functional, cell-based
[2] = Prodrug stability assessed as 4-hydroxytamoxifen release at 40 uM in serum free medium in absence of RNase 1; format: ADME
MCF7 [3] = assay: Antiproliferative activity against human MCF7 cells assessed as incorporation of [methyl-3H]thymidine into cellular DNA in serum free medium in absence of 6.2 ug/mL RNase 1; format: functional, cell-based
[4] = Prodrug stability assessed as 4-hydroxytamoxifen release at 40 uM in pH 7.4 ribonuclease free 0.10 M sodium phosphate buffer containing NaCl and in absence of RNase 1; format: physicochemical; conditions: pH 7.4, 40 µM
[5] = Prodrug stability assessed as compound degradation at 37 degC after 11 hrs in absence of ribonuclease 1 at pH 6.0 by HPLC analysis; format: physicochemical; conditions: buffer, pH 6, 11 h
Ribonuclease pancreatic = biological target: T1, Ribonuclease pancreatic (Homo sapiens, UniProt P07998); assay: Prodrug activation assessed as half life for ribonuclease 1 mediated 4-hydroxytamoxifen release in MES-NaOH buffer at pH 6.0 by HPLC analysis
T1 sequence (P07998 whole entry): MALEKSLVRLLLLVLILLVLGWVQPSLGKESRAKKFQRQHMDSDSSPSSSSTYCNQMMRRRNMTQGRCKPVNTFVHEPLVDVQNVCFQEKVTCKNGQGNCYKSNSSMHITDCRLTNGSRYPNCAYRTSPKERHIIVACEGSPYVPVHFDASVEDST

Compound	IC50 (MCF7 [1]) [µM]	t1/2 [2] [h]	IC50 (MCF7 [3]) [µM]	t1/2 [4] [h]	Drug degradation [5] [%]	t1/2 (Ribonuclease pancreatic) [h]
CC/C(=C(/c1ccc(OCCN(C)C)cc1)c1ccc(OP(=O)(O)O[C@H]2[C@@H](O)[C@H](n3ccc(=O)[nH]c3=O)O[C@@H]2CO)cc1)c1ccccc1	5.2	9	16.7	9.4	< 6	4
CCC(=C(c1ccc(O)cc1)c1ccc(OCCN(C)C)cc1)c1ccccc1	2.7		2.7			
